Experimental data published in US10858335B2 (Rigel Pharmaceuticals, Inc., priority 2014, dated 2020).
Where a name gives a salt, the structure may show the parent alone.

tested on: GDF8 signaling (p-SMAD-3 (Ser423/425)); assay: AlphaScreen SureFire SMAD3 (p-Ser423/425) assay, GDF8-stimulated cells (GDF pSMAD); format: cell-based; details: Mus musculus, MPC-11, MPC11; GDF8-stimulated; p-SMAD3 AlphaScreen; read-out: GDF pSMAD (MPC11) (inhibition of GDF8 signaling)

Compound | IC50
CCn1ncc2cc(-c3cccnc3-c3ccc(F)c(C)c3)ccc21 [Compound 184, 1-Ethyl-5-(2-(4-fluoro-3-methylphenyl)pyridin-3-yl)-1H-indazole] | 12.9 µM
CCn1ncc2cc(-c3cccnc3-c3cccc(C)c3)ccc21 [Compound 185, 1-Ethyl-5-(2-m-tolylpyridin-3-yl)-1H-indazole] | 8.86 µM
Cc1cccc(-c2ncccc2-c2ccc3ncn(C)c3c2)c1 [Compound 186, 1-methyl-6-(2-m-tolylpyridin-3-yl)-1H-benzo[d]imidazole] | 0.3 µM
Cc1cc(-c2ncccc2-c2ccc3ncn(C)c3c2)ccc1F [Compound 187, 6-(2-(4-Fluoro-3-methylphenyl)pyridin-3-yl)-1-methyl-1H-benzo[d]imidazole] | 0.228 µM
Cc1cc(-c2ncccc2-c2ccc3ncnn3c2)ccc1F [Compound 191, 6-(2-(4-Fluoro-3-methylphenyl)pyridin-3-yl)-[1,2,4]triazolo[1,5-a]pyridine] | 0.663 µM
Cc1cccc(-c2ncccc2-c2ccc3ncnn3c2)c1 [Compound 192, 6-(2-m-Tolylpyridin-3-yl)-[1,2,4]triazolo[1,5-a]pyridine] | 0.347 µM
c1cc(-c2ncccc2-c2ccc3nccn3c2)cc(C2CC2)c1 [Compound 193, 6-(2-(3-Cyclopropylphenyl)pyridin-3-yl)H-imidazo[1,2-a]pyridine] | 0.243 µM
c1cc(-c2ncccc2-c2ccc3ncsc3c2)cc(C2CC2)c1 [Compound 194, 6-(2-(3-Cyclopropylphenyl)pyridin-3-yl)benzo[d]thiazole] | 0.149 µM
FC(F)(F)c1cccc(-c2ncccc2-c2ccc3[nH]ncc3c2)c1 [Compound 197, 5-(2-(3-(Trifluoromethyl)phenyl)pyridin-3-yl)-1H-indazole] | 0.359 µM
FC(F)(F)c1cccc(-c2ncccc2-c2cnc3[nH]ncc3c2)c1 [Compound 198, 5-(2-(3-(Trifluoromethyl)phenyl)pyridin-3-yl)-1H-pyrazolo[3,4-b]pyridine] | 0.44 µM
FC(F)(F)c1cccc(-c2ncccc2-c2ccc3nccn3c2)c1 [Compound 199, 6-(2-(3-(Trifluoromethyl)phenyl)pyridin-3-yl)H-imidazo[1,2-a]pyridine] | 1.16 µM
Cn1cnc2ccc(-c3cccnc3-c3cccc(C4CC4)c3)cc21 [Compound 200, 6-(2-(3-Cyclopropylphenyl)pyridin-3-yl)-1-methyl-1H-benzo[d]imidazole] | 0.26 µM
Cc1cc(-c2ncccc2-c2ccc3ccncc3c2)ccc1F [Compound 209, 7-(2-(4-Fluoro-3-methylphenyl)pyridin-3-yl)isoquinoline] | 18.2 µM
Cc1cccc(-c2ncccc2-c2ccc3ccncc3c2)c1 [Compound 210, 7-(2-m-Tolylpyridin-3-yl)isoquinoline] | 12.7 µM
Cc1cccc(-c2ncccc2-c2ccc3ncn(CCCO)c3c2)c1 [compound 38] | 3.23 µM
Cc1cccc(-c2ncccc2-c2ccc3ncn(C(C)C)c3c2)c1 [compound 47] | 8.23 µM
Cc1cccc(-c2ncccc2-c2ccc3[nH]ncc3c2)n1 [compound 116, 5-(2-(6-Methylpyridin-2-yl)pyridin-3-yl)-1H-indazole] | 0.0326 µM

Compound | IC50
Cc1cc(-c2ncccc2-c2ccc3c(cnn3C(=O)OC[C@@H](N)Cc3c[nH]c4ccccc34)c2)ccc1F [compound 179, (S)-2-Amino-3-(1H-indol-3-yl)propyl 5-(2-(4-fluoro-3-methylphenyl)pyridin-3-yl)-1H-indazole-1-carboxylate Trifluoroacetic Acid Salt] | 0.337 µM
COC(=O)c1cc(-c2cccnc2-c2ccc(F)c(C)c2)cc2cn[nH]c12 [compound 190, Methyl 5-(2-(4-fluoro-3-methylphenyl)pyridin-3-yl)-1H-indazole-7-carboxylate] | 1.55 µM
Cc1cc(-c2ncccc2-c2cc(C(=O)O)c3[nH]ncc3c2)ccc1F [compound 195, 5-(2-(4-Fluoro-3-methylphenyl)pyridin-3-yl)-1H-indazole-7-carboxylic acid] | 9.52 µM
Fc1ccc(-c2ncccc2-c2ccc3[nH]ncc3c2)cc1C1CC1 [compound 211, 5-(2-(3-Cyclopropyl-4-fluorophenyl)pyridin-3-yl)-1H-indazole] | 0.198 µM
Cc1cc(-c2ncc(NC3CC3)cc2-c2ccc3[nH]ncc3c2)ccc1F [compound 212, N-Cyclopropyl-6-(4-fluoro-3-methylphenyl)-5-(1H-indazol-5-yl)pyridin-3-amine] | 18.4 µM
CC(C)NC(=O)Nc1cnc(-c2cccc(C3CC3)c2)c(-c2ccc3[nH]ncc3c2)c1 [compound 213, 1-(6-(3-Cyclopropylphenyl)-5-(1H-indazol-5-yl)pyridin-3-yl)-3-isopropylurea] | 4.44 µM
Cc1cccc(-c2ncc(NC(=O)NC(C)C)cc2-c2ccc3[nH]ncc3c2)c1 [compound 214, 1-(5-(1H-Indazol-5-yl)-6-(m-tolyl)pyridin-3-yl)-3-isopropylurea] | 2.64 µM
Cc1cc(-c2ncc(NC(=O)NC(C)C)cc2-c2ccc3c(cnn3C(=O)NC(C)C)c2)ccc1F [compound 215, 5-(2-(4-Fluoro-3-methylphenyl)-5-(3-isopropylureido)pyridin-3-yl)-N-isopropyl-1H-indazole-1-carboxamide] | 15.7 µM
Fc1ccc(-c2ncccc2-c2ccc3ncccc3n2)cc1C1CC1 [compound 216, 2-(2-(3-cyclopropyl-4-fluorophenyl)pyridin-3-yl)-1,5-naphthyridine] | 0.737 µM
Fc1ccc(-c2ncccc2-c2ccc3ncnn3c2)cc1C1CC1 [compound 217, 6-(2-(3-Cyclopropyl-4-fluorophenyl)pyridin-3-yl)-[1,2,4]triazolo[1,5-a]pyridine] | 0.841 µM
Fc1ccc(-c2ncccc2-c2ccc3nccn3c2)cc1C1CC1 [compound 218, 6-(2-(3-Cyclopropyl-4-fluorophenyl)pyridin-3-yl)imidazo[1,2-a]pyridine] | 0.446 µM
Cc1cc(-c2ncc(NC(=O)N3CCOCC3)cc2-c2ccc3nccn3c2)ccc1F [compound 219, N-(6-(4-Fluoro-3-methylphenyl)-5-(imidazo[1,2-a]pyridin-6-yl)pyridin-3-yl)morpholine-4-carboxamide] | 6.77 µM
CCNC(=O)Nc1cnc(-c2ccc(F)c(C)c2)c(-c2ccc3nccn3c2)c1 [compound 220, 1-Ethyl-3-(6-(4-fluoro-3-methylphenyl)-5-(imidazo[1,2-a]pyridin-6-yl)pyridin-3-yl)urea] | 8.62 µM
N#Cc1cnc2ccc(-c3cccnc3-c3ccc(F)c(C4CC4)c3)cn12 [compound 223, 6-(2-(3-Cyclopropyl-4-fluorophenyl)pyridin-3-yl)imidazo[1,2-a]pyridine-3-carbonitrile] | 0.707 µM
NC(=O)c1cnc2ccc(-c3cccnc3-c3ccc(F)c(C4CC4)c3)cn12 [compound 224, 6-(2-(3-Cyclopropyl-4-fluorophenyl)pyridin-3-yl)imidazo[1,2-a]pyridine-3-carboxamide] | 0.621 µM
Cc1cc(-c2ncc(CN3CCOCC3)cc2-c2ccc3nccnc3c2)ccc1F [compound 225, 4-((6-(4-Fluoro-3-methylphenyl)-5-(quinoxalin-6-yl)pyridin-3-yl)methyl)morpholine] | 9.46 µM
Cc1cc(-c2ncc(CN(C)C)cc2-c2ccc3nccnc3c2)ccc1F [compound 226, 1-(6-(4-Fluoro-3-methylphenyl)-5-(quinoxalin-6-yl)pyridin-3-yl)-N,N-dimethylmethanamine] | 10 µM
